Test results from patent US20070128217A1 (priority 2003, published 2007).

Assays:
[1] = test system: antibodies in sera from SARS patients (sera 1a, 1b, 2, 6, 37, 62, London, SARS-yellow, SARS-green); assay type: binding, human; set-up: Binding of serum 6 to linear peptides of protein X1 of SARS-CoV Urbani / Binding of serum 37 to linear peptides of protein X1 of SARS-CoV Urbani / Binding of serum 6 to looped/cyclic peptide (PEPSCAN-ELISA) / Binding of serum 37 to looped/cyclic peptide (PEPSCAN-ELISA) / Binding of serum 37 to looped/cyclic peptides of protein X1 of SARS-CoV Urbani / Binding of serum 6 to linear peptides of protein X2 / Binding of serum 37 to linear peptides of protein X2 / Binding of serum 37 to looped/cyclic peptides of protein X2 of SARS-CoV Urbani / Binding of serum 6 to linear peptides of protein M of SARS-CoV Urbani / Binding of serum 37 to linear peptides of protein M of SARS-CoV Urbani / Binding of serum 6 to looped/cyclic peptides of protein M of SARS-CoV Urbani / Binding of serum 37 to looped/cyclic peptides of protein M of SARS-CoV Urbani / Binding of serum 6 to linear peptides of protein X3 of SARS-CoV Urbani / Binding of serum 37 to linear peptides of protein X3 of SARS-CoV Urbani / Binding of serum 37 to looped/cyclic peptides of protein X3 of SARS-CoV Urbani / Binding of serum 6 to linear peptides of protein X4 of SARS-CoV Urbani / Binding of serum 37 to linear peptides of protein X4 of SARS-CoV Urbani / Binding of serum 37 to looped/cyclic peptides of protein X4 of SARS-CoV Urbani / Binding of serum 6 to linear peptides of protein X5 of SARS-CoV Urbani / Binding of serum 37 to linear peptides of protein X5 of SARS-CoV Urbani / Binding of serum 37 to looped/cyclic peptides of protein X5 of SARS-CoV Urbani / Binding of serum 6 to linear peptides of protein N of SARS-CoV Urbani / Binding of serum 37 to linear peptides of protein N of SARS-CoV Urbani / Binding of serum 6 to linear peptide (PEPSCAN-ELISA) / Binding of serum 1a to looped/cyclic peptides of protein N of SARS-CoV Urbani / Binding of serum 1b to looped/cyclic peptides of protein N of SARS-CoV Urbani / Binding of serum 2 to looped/cyclic peptides of protein N of SARS-CoV Urbani / Binding of serum 6 to looped/cyclic peptides of protein N of SARS-CoV Urbani / Binding of serum 37 to looped/cyclic peptides of protein N of SARS-CoV Urbani / Binding of serum 62 to looped/cyclic peptides of protein N of SARS-CoV Urbani / Binding of serum London to looped/cyclic peptides of protein N of SARS-CoV Urbani / Binding of serum SARS-green to looped/cyclic peptides of protein N of SARS-CoV Urbani: unit not given here
[2] = test system: control sera (pooled serum of ten healthy LUMC hospital workers; commercial negative donor pooled serum from the Dutch bloodbank); assay type: binding, human; set-up: Binding of Control serum LUMC to linear peptides / Binding of Control serum Blood-bank to linear peptides / Binding of Control serum LUMC to looped peptides / Binding of Control Serum Blood-Bank to Looped peptides / Binding of Control serum LUMC to linear peptides of the protein M of SARS-CoV Urbani / Binding of Control serum Blood-bank to linear peptides of the protein M of SARS-CoV Urbani / Binding of Control serum LUMC to looped peptides of the protein M of SARS-CoV Urbani / Binding of Control Serum Blood-Bank to Looped peptides of the protein M of SARS-CoV Urbani: unit not given here
[3] = test system: rabbit serum obtained by immunizing a rabbit with the SARS-CoV strain Frankfurt 1; assay type: binding; set-up: Binding of a rabbit serum to linear peptides / Binding of a rabbit serum to looped peptides / Rabbit serum linear peptides / Rabbit serum looped peptides / Binding of a rabbit serum to linear peptides of protein N of SARS-CoV Urbani (Rabbit serum linear peptides) / Binding of a rabbit serum to looped/cyclic peptides of protein N of SARS-CoV Urbani (Rabbit serum looped peptides): unit not given here
[4] = test system: recombinant human anti-SARS-CoV antibody 03-018; assay type: binding; set-up: Binding of antibody 03-018 to linear peptides of the N protein of SARS-CoV Urbani / Binding of antibody 03-018 to looped/cyclic peptides of the N protein of SARS-CoV Urbani: unit not given here

TALALLLLDRLNQLE was tested, and the “Binding of serum 1a to linear peptide (PEPSCAN-ELISA)” value [1] was 0.3, the “Binding of serum 1a to looped/cyclic peptides of protein N of SARS-CoV Urbani” value [1] was 0.4 and the “Binding of serum 1b to linear peptide (PEPSCAN-ELISA)” value [1] was 0.2. For the same sequence, the “Binding of serum 1b to looped/cyclic peptides of protein N of SARS-CoV Urbani” value [1] was 0.3, the “Binding of serum 2 to linear peptide (PEPSCAN-ELISA)” value [1] was 0.2 and the “Binding of serum 2 to looped/cyclic peptides of protein N of SARS-CoV Urbani” value [1] was 0.5. For the same sequence, the “Binding of serum 6 to linear peptide (PEPSCAN-ELISA)” value [1] was 0.2, the “Binding of serum 6 to looped/cyclic peptides of protein N of SARS-CoV Urbani” value [1] was 0.3 and the “Binding of serum 37 to linear peptide (PEPSCAN-ELISA)” value [1] was 0.7. The “Binding of serum 37 to looped/cyclic peptides of protein N of SARS-CoV Urbani” value [1] was 0.8, the “Binding of serum 62 to linear peptide (PEPSCAN-ELISA)” value [1] was 0.7 and the “Binding of serum 62 to looped/cyclic peptides of protein N of SARS-CoV Urbani” value [1] was 0.7. For the same sequence, the “Binding of serum London to linear peptide (PEPSCAN-ELISA)” value [1] was 0.5, the “Binding of serum London to looped/cyclic peptides of protein N of SARS-CoV Urbani” value [1] was 0.5 and the “Binding of serum SARS-green to linear peptide (PEPSCAN-ELISA)” value [1] was 0.8. For the same sequence, the “Binding of serum SARS-green to looped/cyclic peptides of protein N of SARS-CoV Urbani” value [1] was 0.7, the “Binding of serum SARS-yellow to linear peptide (PEPSCAN-ELISA)” value [1] was 0.6 and the “Binding of serum SARS-yellow to looped/cyclic peptides of protein N of SARS-CoV Urbani” value [1] was 0.5. For the same sequence, the “Binding of Control Serum Blood-Bank to Looped peptides” value [2] was 0.8, the “Binding of Control serum Blood-bank to linear peptides” value [2] was 0.7 and the “Binding of Control serum LUMC to linear peptides” value [2] was 0.7. The “Binding of Control serum LUMC to looped peptides” value [2] was 0.8, the “Binding of a rabbit serum to linear peptides of protein N of SARS-CoV Urbani (Rabbit serum linear peptides)” value (“Binding … (Rabbit serum linear peptides)” for short) [3] was 0.2 and the “Binding of a rabbit serum to looped/cyclic peptides of protein N of SARS-CoV Urbani (Rabbit serum looped peptides)” value [3] was 0.5. For the same sequence, the “Binding of antibody 03-018 to linear peptides of the N protein of SARS-CoV Urbani” value [4] was 0.1 and the “Binding of antibody 03-018 to looped/cyclic peptides of the N protein of SARS-CoV Urbani” value [4] was 0.2.
In the case of TDNNQNGGRNGARPK, the “Binding of serum 1a to linear peptides of protein N of SARS-CoV Urbani” value [1] is reported as 0.3, the “Binding of serum 1a to looped/cyclic peptides of protein N of SARS-CoV Urbani” value [1] is reported as 0.2 and the “Binding of serum 1b to linear peptides of protein N of SARS-CoV Urbani” value [1] is reported as 0.2. The “Binding of serum 1b to looped/cyclic peptides of protein N of SARS-CoV Urbani” value [1] was 0.1, the “Binding of serum 2 to linear peptides of protein N of SARS-CoV Urbani” value [1] was 0.4 and the “Binding of serum 2 to looped/cyclic peptides of protein N of SARS-CoV Urbani” value [1] was 0.2. For the same sequence, the “Binding of serum 6 to linear peptides of protein N of SARS-CoV Urbani” value [1] was 0.2, the “Binding of serum 6 to looped/cyclic peptides of protein N of SARS-CoV Urbani” value [1] was 0.2 and the “Binding of serum 37 to linear peptides of protein N of SARS-CoV Urbani” value [1] was 0.8. For the same sequence, the “Binding of serum 37 to looped/cyclic peptides of protein N of SARS-CoV Urbani” value [1] was 0.4, the “Binding of serum 62 to linear peptides of protein N of SARS-CoV Urbani” value [1] was 1.0 and the “Binding of serum 62 to looped/cyclic peptides of protein N of SARS-CoV Urbani” value [1] was 0.2. The “Binding of serum London to linear peptides of protein N of SARS-CoV Urbani” value [1] was 0.6, the “Binding of serum London to looped/cyclic peptides of protein N of SARS-CoV Urbani” value [1] was 0.3 and the “Binding of serum SARS-green to linear peptides of protein N of SARS-CoV Urbani” value [1] was 0.8. The “Binding of serum SARS-green to looped/cyclic peptides of protein N of SARS-CoV Urbani” value [1] was 0.1, the “Binding of serum SARS-yellow to linear peptides of protein N of SARS-CoV Urbani” value [1] was 0.7 and the “Binding of serum SARS-yellow to looped/cyclic peptides of protein N of SARS-CoV Urbani” value [1] was 0.3. The “Binding of Control Serum Blood-Bank to Looped peptides” value [2] was 0.5, the “Binding of Control serum Blood-bank to linear peptides” value [2] was 0.9 and the “Binding of Control serum LUMC to linear peptides” value [2] was 0.8. The “Binding of Control serum LUMC to looped peptides” value [2] was 0.5, the “Binding … (Rabbit serum linear peptides)” value [3] was 0.2 and the “Binding of a rabbit serum to looped/cyclic peptides of protein N of SARS-CoV Urbani (Rabbit serum looped peptides)” value [3] was 0.4. For the same sequence, the “Binding of antibody 03-018 to linear peptides of the N protein of SARS-CoV Urbani” value [4] was 0.2 and the “Binding of antibody 03-018 to looped/cyclic peptides of the N protein of SARS-CoV Urbani” value [4] was 0.2.
In the case of TDYKHWPQIAQFAPS, the “Binding of serum 1a to linear peptides of protein N of SARS-CoV Urbani” value [1] is reported as 0.3, the “Binding of serum 1a to looped/cyclic peptides of protein N of SARS-CoV Urbani” value [1] is reported as 0.6 and the “Binding of serum 1b to linear peptides of protein N of SARS-CoV Urbani” value [1] is reported as 0.2. For the same sequence, the “Binding of serum 1b to looped/cyclic peptides of protein N of SARS-CoV Urbani” value [1] was 0.5, the “Binding of serum 2 to linear peptides of protein N of SARS-CoV Urbani” value [1] was 0.2 and the “Binding of serum 2 to looped/cyclic peptides of protein N of SARS-CoV Urbani” value [1] was 0.8. For the same sequence, the “Binding of serum 6 to linear peptides of protein N of SARS-CoV Urbani” value [1] was 0.2, the “Binding of serum 6 to looped/cyclic peptides of protein N of SARS-CoV Urbani” value [1] was 0.5 and the “Binding of serum 37 to linear peptides of protein N of SARS-CoV Urbani” value [1] was 0.8. For the same sequence, the “Binding of serum 37 to looped/cyclic peptides of protein N of SARS-CoV Urbani” value [1] was 0.9, the “Binding of serum 62 to linear peptides of protein N of SARS-CoV Urbani” value [1] was 0.9 and the “Binding of serum 62 to looped/cyclic peptides of protein N of SARS-CoV Urbani” value [1] was 1.3. For the same sequence, the “Binding of serum London to linear peptides of protein N of SARS-CoV Urbani” value [1] was 0.7, the “Binding of serum London to looped/cyclic peptides of protein N of SARS-CoV Urbani” value [1] was 0.7 and the “Binding of serum SARS-green to linear peptides of protein N of SARS-CoV Urbani” value [1] was 0.4. For the same sequence, the “Binding of serum SARS-green to looped/cyclic peptides of protein N of SARS-CoV Urbani” value [1] was 0.6, the “Binding of serum SARS-yellow to linear peptides of protein N of SARS-CoV Urbani” value [1] was 0.7 and the “Binding of serum SARS-yellow to looped/cyclic peptides of protein N of SARS-CoV Urbani” value [1] was 0.9. For the same sequence, the “Control Serum Blood-Bank Looped peptides” value [2] was 1.2, the “Control serum Blood-bank linear peptides” value [2] was 0.8 and the “Control serum LUMC linear peptides” value [2] was 0.8. The “Control serum LUMC looped peptides” value [2] was 1.1, the “Binding … (Rabbit serum linear peptides)” value [3] was 0.2 and the “Binding of a rabbit serum to looped/cyclic peptides of protein N of SARS-CoV Urbani (Rabbit serum looped peptides)” value [3] was 0.5. For the same sequence, the “Binding of antibody 03-018 to linear peptides of the N protein of SARS-CoV Urbani” value [4] was 0.1 and the “Binding of antibody 03-018 to looped/cyclic peptides of the N protein of SARS-CoV Urbani” value [4] was 0.2.
